Measured values reported in PubChem BioAssay (NCI).
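How tested: cells in 96-well plates exposed to compound for 48 hours at five concentrations. GI50 is the concentration that inhibits growth by half. At the TGI there is no net growth.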

What was measured:
Assay in all cases: DTP human tumour cell line panel, 48 h
[1] = test system: OVCAR-5 ovarian
[2] = test system: MALME-3M melanoma
[3] = test system: OVCAR-4 ovarian
[4] = test system: SK-MEL-28 melanoma
[5] = test system: HS 578T breast
[6] = test system: HCT-15 colon
[7] = test system: SNB-75 CNS
[8] = test system: ACHN renal
[9] = test system: COLO 205 colon
[10] = test system: RPMI-8226 leukemia
[11] = test system: K-562 leukemia
[12] = test system: UACC-62 melanoma
[13] = test system: SN12C renal
[14] = test system: MDA-MB-231 breast
[15] = test system: HCC-2998 colon
[16] = test system: SF-295 CNS
[17] = test system: TK-10 renal
[18] = test system: CAKI-1 renal
[19] = test system: CCRF-CEM leukemia
[20] = test system: A498 renal
[21] = test system: MDA-MB-435
[22] = test system: SK-MEL-5 melanoma
[23] = test system: NCI-H226 lung
[24] = test system: SK-MEL-2 melanoma
[25] = test system: SF-539 CNS
[26] = test system: RXF 393 renal
[27] = test system: UO-31 renal
[28] = test system: DU-145 prostate
[29] = test system: UACC-257 melanoma
[30] = test system: KM12 colon
[31] = test system: NCI/ADR-RES ovarian
[32] = test system: HT29 colon
[33] = test system: SK-OV-3 ovarian
[34] = test system: A549 NSCLC
[35] = test system: T-47D breast
[36] = test system: NCI-H23 lung
[37] = test system: M14 melanoma
[38] = test system: SF-268 CNS
[39] = test system: NCI-H522 lung
[40] = test system: HOP-92 NSCLC
[41] = test system: SNB-19 CNS
[42] = test system: BT-549 breast
[43] = test system: NCI-H460 lung
[44] = test system: SR leukemia
[45] = test system: OVCAR-8 ovarian
[46] = test system: LOX IMVI melanoma
[47] = test system: HOP-62 NSCLC
[48] = test system: PC-3 prostate
[49] = test system: SW-620 colon
[50] = test system: HL-60(TB) leukemia
[51] = test system: U251 CNS
[52] = test system: 786-0 renal
[53] = test system: IGROV1 ovarian
[54] = test system: HCT-116 colon
[55] = test system: EKVX NSCLC
[56] = test system: MOLT-4 leukemia

**Q.** For `Nc1cc(-c2c[nH]c3ccc(Br)cc23)nc2cc(-c3c[nH]c4ccc(Br)cc34)nn12`, which GI50 [1] is on record?
**A.** 1.53 µM

**Q.** What about the TGI [1] of the same molecule?
**A.** 3.11 µM

**Q.** What about the GI50 [2] of the same molecule?
**A.** 1.93 µM

**Q.** What about the TGI [2] of the same molecule?
**A.** 4.08 µM

**Q.** What about the GI50 [3] of the same molecule?
**A.** 2.03 µM

**Q.** And the TGI [3]?
**A.** 5.25 µM

**Q.** What about the GI50 [4] of the same molecule?
**A.** 1.62 µM

**Q.** What about the TGI [4] of the same molecule?
**A.** 3.08 µM

**Q.** What about the GI50 [5] of the same molecule?
**A.** 2.3 µM

**Q.** And the TGI [5]?
**A.** 7.54 µM

**Q.** And the GI50 [6]?
**A.** 1.36 µM

**Q.** And the TGI [6]?
**A.** 3.18 µM

**Q.** What about the GI50 [7] of the same molecule?
**A.** 1.17 µM

**Q.** What about the TGI [7] of the same molecule?
**A.** 3.77 µM

**Q.** And the GI50 [8]?
**A.** 1.56 µM

**Q.** What about the TGI [8] of the same molecule?
**A.** 2.96 µM

**Q.** What about the GI50 [9] of the same molecule?
**A.** 1.76 µM

**Q.** What about the TGI [9] of the same molecule?
**A.** 3.23 µM

**Q.** What about the GI50 [10] of the same molecule?
**A.** 3.17 µM

**Q.** And the TGI [10]?
**A.** > 100 µM

**Q.** What about the GI50 [11] of the same molecule?
**A.** 2.81 µM

**Q.** What about the TGI [11] of the same molecule?
**A.** > 100 µM

**Q.** And the GI50 [12]?
**A.** 1.48 µM

**Q.** What about the TGI [12] of the same molecule?
**A.** 3.05 µM

**Q.** And the GI50 [13]?
**A.** 1.84 µM

**Q.** What about the TGI [13] of the same molecule?
**A.** 3.64 µM

**Q.** And the GI50 [14]?
**A.** 1.89 µM

**Q.** And the TGI [14]?
**A.** 3.79 µM

**Q.** And the GI50 [15]?
**A.** 1.8 µM

**Q.** What about the TGI [15] of the same molecule?
**A.** 3.34 µM

**Q.** What about the GI50 [16] of the same molecule?
**A.** 1.89 µM

**Q.** What about the TGI [16] of the same molecule?
**A.** 3.57 µM

**Q.** What about the GI50 [17] of the same molecule?
**A.** 1.8 µM

**Q.** And the TGI [17]?
**A.** 3.39 µM

**Q.** What about the GI50 [18] of the same molecule?
**A.** 1.43 µM

**Q.** What about the TGI [18] of the same molecule?
**A.** 3.15 µM

**Q.** What about the GI50 [19] of the same molecule?
**A.** 3.21 µM

**Q.** And the TGI [19]?
**A.** > 100 µM

**Q.** What about the GI50 [20] of the same molecule?
**A.** 1.57 µM

**Q.** And the TGI [20]?
**A.** 4.07 µM

**Q.** What about the GI50 [21] of the same molecule?
**A.** 1.71 µM

**Q.** And the TGI [21]?
**A.** 3.25 µM

**Q.** And the GI50 [22]?
**A.** 1.7 µM

**Q.** What about the TGI [22] of the same molecule?
**A.** 3.18 µM

**Q.** What about the GI50 [23] of the same molecule?
**A.** 2.14 µM

**Q.** And the TGI [23]?
**A.** 6.11 µM

**Q.** What about the GI50 [24] of the same molecule?
**A.** 1.67 µM

**Q.** What about the TGI [24] of the same molecule?
**A.** 3.27 µM

**Q.** What about the GI50 [25] of the same molecule?
**A.** 1.46 µM

**Q.** And the TGI [25]?
**A.** 2.92 µM

**Q.** What about the GI50 [26] of the same molecule?
**A.** 1.83 µM

**Q.** What about the TGI [26] of the same molecule?
**A.** 3.54 µM

**Q.** And the GI50 [27]?
**A.** 1.47 µM

**Q.** And the TGI [27]?
**A.** 2.79 µM

**Q.** And the GI50 [28]?
**A.** 1.72 µM

**Q.** And the TGI [28]?
**A.** 3.23 µM

**Q.** And the GI50 [29]?
**A.** 1.63 µM

**Q.** What about the TGI [29] of the same molecule?
**A.** 3.2 µM

**Q.** And the GI50 [30]?
**A.** 1.48 µM

**Q.** What about the TGI [30] of the same molecule?
**A.** 2.96 µM

**Q.** And the GI50 [31]?
**A.** 2.5 µM

**Q.** What about the TGI [31] of the same molecule?
**A.** 6.14 µM

**Q.** And the GI50 [32]?
**A.** 1.71 µM

**Q.** And the TGI [32]?
**A.** 3.15 µM

**Q.** And the GI50 [33]?
**A.** 1.71 µM

**Q.** And the TGI [33]?
**A.** 3.44 µM

**Q.** What does the source list for `CCOc1ccccc1NC1=C(Cl)C(=O)c2nc(C)ccc2C1=O`?
**A.** GI50 [1]: 1.84 µM; TGI [1]: 3.33 µM; GI50 [2]: 1.36 µM; TGI [2]: 2.77 µM; GI50 [3]: 1 µM; TGI [3]: 2.22 µM; GI50 [4]: 1.71 µM; TGI [4]: 3.14 µM; GI50 [5]: 2.11 µM; TGI [5]: 5.25 µM; GI50 [34]: 2.06 µM; TGI [34]: 4.65 µM; GI50 [6]: 1.13 µM; TGI [6]: 2.55 µM; GI50 [7]: 1.63 µM; TGI [7]: 3.43 µM; GI50 [35]: 0.467 µM; TGI [35]: 3.17 µM; GI50 [36]: 1.44 µM; TGI [36]: 3.55 µM; GI50 [37]: 1.46 µM; TGI [37]: 2.83 µM; GI50 [8]: 1.35 µM; TGI [8]: 2.69 µM; GI50 [9]: 1.73 µM; TGI [9]: 3.66 µM; GI50 [10]: 1.2 µM; TGI [10]: 4.71 µM; GI50 [38]: 1.47 µM; TGI [38]: 2.94 µM; GI50 [12]: 1.8 µM; TGI [12]: 3.36 µM; GI50 [39]: 1.74 µM; TGI [39]: 3.28 µM; GI50 [40]: 1.8 µM; TGI [40]: 3.33 µM; GI50 [13]: 1.59 µM; TGI [13]: 3.04 µM; GI50 [14]: 1.07 µM; TGI [14]: 2.38 µM; GI50 [41]: 1.8 µM; TGI [41]: 3.97 µM; GI50 [15]: 1.94 µM; TGI [15]: 3.52 µM; GI50 [16]: 2.03 µM; TGI [16]: 4.2 µM; GI50 [17]: 2.25 µM; TGI [17]: 3.72 µM; GI50 [42]: 1.52 µM; TGI [42]: 2.88 µM; GI50 [18]: 1.45 µM; TGI [18]: 2.84 µM; GI50 [43]: 3.02 µM; TGI [43]: 11.4 µM; GI50 [19]: 1.41 µM; TGI [19]: > 100 µM; GI50 [20]: 2.65 µM; TGI [20]: 10.8 µM; GI50 [21]: 0.266 µM; TGI [21]: 0.671 µM; GI50 [22]: 1.74 µM; TGI [22]: 3.13 µM; GI50 [44]: 0.543 µM; TGI [44]: 4.14 µM; GI50 [23]: 1.78 µM; TGI [23]: 4.24 µM; GI50 [45]: 1.49 µM; TGI [45]: 2.92 µM; GI50 [46]: 0.839 µM; TGI [46]: 2.22 µM; GI50 [47]: 2.27 µM; TGI [47]: 6.74 µM; GI50 [24]: 1.44 µM; TGI [24]: 2.86 µM; GI50 [25]: 1.67 µM; TGI [25]: 3.09 µM; GI50 [48]: 1.26 µM; TGI [48]: 2.77 µM; GI50 [26]: 1.44 µM; TGI [26]: 2.78 µM; GI50 [49]: 1.6 µM; TGI [49]: 3.21 µM; GI50 [27]: 1.4 µM; TGI [27]: 2.71 µM; GI50 [50]: 1.03 µM; TGI [50]: 2.92 µM; GI50 [28]: 1.63 µM; TGI [28]: 2.99 µM; GI50 [29]: 1.28 µM; TGI [29]: 2.61 µM; GI50 [51]: 1.7 µM; TGI [51]: 3.27 µM; GI50 [30]: 1.41 µM; TGI [30]: 2.89 µM; GI50 [31]: 1.89 µM; TGI [31]: 5.09 µM; GI50 [52]: 1.8 µM; TGI [52]: 3.25 µM; GI50 [53]: 1.37 µM; TGI [53]: 2.82 µM; GI50 [54]: 1.05 µM; TGI [54]: 2.31 µM; GI50 [32]: 3.4 µM; TGI [32]: 15.2 µM; GI50 [55]: 1.56 µM; TGI [55]: 2.98 µM; GI50 [56]: 2.03 µM; TGI [56]: 8.09 µM; GI50 [33]: 13.5 µM; TGI [33]: 27.1 µM
